# In patent publication US20240302376A1, “METHOD FOR IDENTIFYING SUBGROUPS OF CIRCULATING TUMOR CELLS (CTCS) IN THE CTC POPULATION OF A BIOLOGICAL SAMPLE” (priority 2012, published 2024):
# Tests used:
# [1] = tested on: Pt-(GpG) in the DNA of CTC; test: Pt-(GpG) adduct levels in CTC after cisplatin infusion versus ex vivo exposure; parameters: species or system human; details: clinical dose 50 mgm_2 (1.4 mg kg_1 body weight); blood at baseline and 2, 4 and 24 h after infusion; same patient
# Experimental: To test whether adduct kinetics measured in tumour cells after ex vivo exposure to cisplatin mirror the formation and repair rates for Pt-(GpG) in the DNA of those cells in vivo during systemic treatment, blood samples from the same patient were analysed under both the conditions.
# [2] = tested on: Pt-(GpG) adducts in DNA of CTC and CD45-positive cells; test: Pt-(GpG) DNA adducts in CD45/CD15-depleted mononuclear cell fraction exposed to cisplatin ex vivo; assay type: cell-based, human; details: after exposure to cisplatin, NSCLC patient blood
# Text: Pt-(GpG) intrastrand crosslinks are the major DNA adducts induced by platinum-based anticancer drugs. […] Pt-(GpG) DNA adducts in CTCs treated with cisplatin in medium upfront to systemic therapy from patients with advanced non-small-cell lung cancer (NSCLC) was studied.
# Blood was drawn before systemic treatment and the CD45/CD15-depleted fraction of mononuclear cells was exposed to cisplatin, verified for the presence of CTC by pan-cytokeratin (pCK) staining and immunoanalysed for the level of Pt-(GpG) in DNA. Pt-(GpG) adducts can be detected in CTC from NSCLC patients and assessing their kinetics constitutes a clinically feasible biomarker for response prediction and dose individualisation of platinum-based chemotherapy.
# Epithelial CTCs were detected that stained positive for DAPI and pCK and negative for CD45. The ratio of pCK− positive to CD45-positive cells in the depleted fractions was in the range of […], resulting in up to three CTC per cell spot on the slides. […]
# The measurement of Pt-(GpG) adducts in the nuclear DNA of short term-exposed CTC depict a characteristic time course of formation and removal. […] The degree of association was calculated between these three values of ex vivo adduct persistence in CTC from 11 patients with their therapeutic response using the Spearman's rho rank correlation coefficient. […]
smiles,measurement,setting,value
N.N.[Cl][Pt][Cl] [cisplatin],CTC adduct levels after clinical dose versus ex vivo exposure,[1],comparable to a short time ex vivo exposure with 20 mgml_1 for 2 h
same,levels of DNA platination in CD45-positive cells as compared with CTC (fold lower),[2],~10 fold
